Measured values as given in ChEMBL document CHEMBL5252509, “In depth analysis of kinase cross screening data to identify chemical starting points for inhibition of the Nek family of kinases” (Medchemcomm, 2018).

Molecular target: Serine/threonine-protein kinase Nek4 (Homo sapiens) (UniProt P51957)
Assay: Inhibition of NEK4 (unknown origin) at 100 nM relative to control

Serine/threonine-protein kinase Nek4 (Homo sapiens), sequence (P51957 whole entry, looked up): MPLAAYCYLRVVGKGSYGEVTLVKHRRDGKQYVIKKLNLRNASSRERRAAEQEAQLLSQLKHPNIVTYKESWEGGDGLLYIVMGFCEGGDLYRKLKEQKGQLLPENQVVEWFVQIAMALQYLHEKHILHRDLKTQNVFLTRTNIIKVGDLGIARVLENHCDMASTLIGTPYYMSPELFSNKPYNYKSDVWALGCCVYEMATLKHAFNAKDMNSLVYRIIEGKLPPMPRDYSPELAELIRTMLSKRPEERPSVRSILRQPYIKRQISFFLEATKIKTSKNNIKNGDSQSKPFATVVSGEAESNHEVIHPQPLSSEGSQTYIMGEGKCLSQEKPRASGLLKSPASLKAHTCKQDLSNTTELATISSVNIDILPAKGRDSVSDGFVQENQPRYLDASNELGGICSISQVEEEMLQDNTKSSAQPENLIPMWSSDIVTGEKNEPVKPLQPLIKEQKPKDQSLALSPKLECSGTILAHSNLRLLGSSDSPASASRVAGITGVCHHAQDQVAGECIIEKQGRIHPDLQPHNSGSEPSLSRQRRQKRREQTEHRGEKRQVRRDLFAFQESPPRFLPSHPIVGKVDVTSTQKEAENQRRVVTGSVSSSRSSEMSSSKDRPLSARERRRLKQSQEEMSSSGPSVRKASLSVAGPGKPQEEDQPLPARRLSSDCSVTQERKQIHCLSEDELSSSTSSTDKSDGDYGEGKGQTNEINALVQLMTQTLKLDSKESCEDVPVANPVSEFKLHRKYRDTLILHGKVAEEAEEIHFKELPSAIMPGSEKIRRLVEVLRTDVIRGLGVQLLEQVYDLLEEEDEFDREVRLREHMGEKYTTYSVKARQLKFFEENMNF

inhibition: 47.5%
SMILES: Ic1ccc(Oc2cncc3sc(-c4nn[nH]n4)cc23)cc1
